Entries after “also recorded” stand apart in the source; their conditions may differ. Read-outs that look alike come from different tables or passages of the source.
Legend:
H1299 cells = experiment: CCK-8 cell viability, H1299; format: cell-based; conditions: Homo sapiens, NCI-H1299, H1299 (wild-type), read-out: Cellular Antiproliferative Activity (IC50, μM) H1299
Description: (§1) All the cell viability assays were performed according to the CCK-8 method. The cells were seeded at a density of 5 to 8 × 10^4 cells/mL in 96-well plates in growth medium supplemented with 10% serum at 37 °C with 5% CO2 for one day. After 12 h of incubation, 100 μL of medium was removed, and 100 μL of sample solution with different concentrations of inhibitor was added and then the cells were incubated for 48 or 72 h. Subsequently, 10 μL of CCK-8 reagent (Biotool Company, Kirchberg, Switzerland, 5.0 mg/mL) dissolved in phosphate-buffered saline (PBS) was added and the cells were incubated for another 4 h. The absorbance was read at 450 nm with a microplate reader (Thermo Fisher Scientific, Waltham, MA, USA). The data were calculated using GraphPad Prim version 5.0.

H1975 cells [1] = experiment: Cell apoptosis, Annexin V-FITC/PI flow cytometry, H1975; format: cell-based, human; conditions: 48 h
Description: The H1975 and A431 cells (1 to 5 × 10^5 cells/well) incubated in 6-well plates were treated by different concentrations of inhibitors for 48 h. Then, they were collected and fixed with 70% ethanol at 4 °C overnight. After beening fixed with […], the cells were stained with Annexin V-FITC (5 μL)/propidium iodide (5 μL) and analyzed by flow cytometry assay (Becton-Dickinson, Franklin Lakes, NJ, USA).

A431 cells [2] = experiment: Intracellular ROS generation (DCFH-DA), A431; format: cell-based, human; conditions: A431, 24 h
Description: (§2) The human H1975 and A431 cells at a density of approximately 2 × 10^5 cells/well were plated in a 6-well plate and then treated with different concentrations of inhibitors for 24 h. Then the cells were harvested, resuspended in 1 mL of DCFH-DA ([…]), and the levels of ROS were determined by flow cytometry (Becton-Dickinson, Franklin Lakes, NJ, USA).

H1975 cells [3] = experiment: CCK-8 cell viability, H1975; format: cell-based; conditions: Homo sapiens, NCI-H1975, H1975 (EGFR T790M), read-out: Cellular Antiproliferative Activity (IC50, μM) H1975
Description: as §1

EGFR L858R/T790M = target: T1, EGFR L858R/T790M (Homo sapiens, UniProt P00533, L858R/T790M); experiment: EGFR kinase enzymatic assay (ADP-Glo), L858R/T790M mutant; format: biochemical
T1 construct: purchased Promega Corporation V5324
Description: (§3) Concentrations consisting of suitable levels from 0.1 to 100 nM were used for all of the tested compunds. The experiments were performed according to the instructions of the manufacturer. […] The test was performed in a 384-well plate, and includes the major steps below: (1) perform a 5 μL kinase reaction using 1× kinase buffer (e.g., 1× reaction buffer A); (2) incubate at room temperature for 60 min; (3) add 5 μL of ADP-Glo™ Reagent to stop the kinase reaction and deplete the unconsumed ATP, leaving only ADP and a very low background of ATP; (4) incubate at room temperature for 40 min; (5) add 10 μL of Kinase Detection; (6) reagent to convert ADP to ATP and introduce luciferase and luciferin to detect ATP; (7) incubate at room temperature for 30 min; (8) plate was measured on TriStar® LB942 Multimode Microplate Reader (BERTHOLD TECHNOLOGIES GmbH & Co. KG., Bad Wildbad, Germany) to detect the luminescence (Integration time 0.5–1 s). Curve fitting and data presentations were performed using GraphPad Prism version 5.0 (GraphPad Software, Inc.).

HCC827 cells = experiment: CCK-8 cell viability, HCC827; format: cell-based; conditions: Homo sapiens
Description: as §1

LoVo cells = experiment: CCK-8 cell viability, LoVo; format: cell-based; conditions: Homo sapiens
Description: as §1

[4] = In vivo blood sugar test (rat oral glucose tolerance); conditions: healthy male SD rats, 50 mg/kg (HBr form), up to 12 h
Description: The Roche Accu-chek® Go blood meter was used for the determination of glucose concentration. Before testing, standard set-up of blood meter was performed according to the instrument’s specifications. […] Water was allowed ad libitum throughout the study. Rats were orally given compound DY3002 (50 mg/kg) and a vehicle. For the oral study, the compounds were formulated as a solution (Solutol HS15: NS = 30:70, v:v). Sampling occurred prior to dosing and at 7–9 different time points up to 12 h. Concentration of glucose in the blood was determined by blood meter.

A431 cells [5] = experiment: Cell cycle analysis, PI flow cytometry, A431; format: cell-based, human; conditions: 48 h
Description: (§4) The H1975 and A431 cells at a density of approximately 2 × 10^5 cells/well were incubated in 6-well plates, treated with different concentrations of inhibitors for 48 h, collected and fixed with 70% ethanol at 4 °C overnight. After fixation, the cells were washed with PBS and stained with propidium iodide (PI) for 10 min under subdued light. Stained cells were analyzed by flow cytometry assay (Becton-Dickinson, Franklin Lakes, NJ, USA).

H1975 cells [6] = experiment: Intracellular ROS generation (DCFH-DA), H1975; format: cell-based, human; conditions: H1975, 24 h
Description: as §2

H1975 cells [7] = experiment: AO/EB and DAPI staining, H1975; format: cell-based, human; conditions: H1975, AO/EB or DAPI staining, 48 h
Description: (§5) Approximately 2 × 10^5 cells/well of A431 and H1975 cells in 6-well plates were incubated in an incubator for 48 h, then treated with different concentrations of inhibitors for 48 h. After incubation, the cells were washed with PBS twice. Then, total of 20 μL of the solution containing the AO/EB dye mix (1.0 μg/mL of AO and 1.0 μg/mL of EB in PBS) was added to the cells. The apoptotic, necrotic, and live cells were observed and counted under the fluorescent microscope (OLYMPUS, Tokyo, Japan). DAPI staining was performed after being treated as mentioned above. The cells plated in 6-well plates were washed twice with PBS and fixed with 10% formaldehyde for 10 min, then washed with PBS three times. Cells were subsequently incubated in DAPI (1.0 μg/mL) solution at room temperature for 10 min, washed with PBS and examined under a fluorescence microscope (OLYMPUS).

H1975 cells [8] = experiment: Cell cycle analysis, PI flow cytometry, H1975; format: cell-based, human; conditions: H1975, 200 nM, 48 h, cell cycle phase
Description: as §4

A431 cells [9] = experiment: Cell apoptosis, Annexin V-FITC/PI flow cytometry, A431; format: cell-based, human; conditions: 48 h
A431 cells [10] = experiment: Wound healing and transwell assays, A431; format: cell-based, human
Description: (§6) The cancer cells were cultured in 6-well plates for 48 h at 37 °C. Wounds were created in the cell monolayer and washed with PBS to remove cell debris, then the cells were treated with different concentrations of inhibitor for 48 h. After that, the dead cells were washed away with PBS, and the images were taken by the fluorescence microscope (OLYMPUS).
(§7) Cell migration assay was evaluated by using Boyden chambers containing a transwell membrane filter with an 8 μm size pore (Corning Costa Corp, Cambridge, MA, USA). Prior to the invasion assay, the filter membrane was coated with 60 μL of Matrigel (BD Biosciences, Billerica, MA, USA) at a 1:8 dilution and rehydrated by adding […] serum-free medium to the apical side of the chamber at 37 °C for 0.5 h. The cells (2 × 10^5 cells/well for invasion assay) were seeded to the apical side of the chamber with 200 μL medium with different concentrations of inhibitors, and the basolateral side of the chamber was filled with 600 μL medium containing 10% FBS. After 24 h at 37 °C, the cells adherent to the upper surface of the filter were swept by cotton swabs, then fixed with methanol, stained with crystal violet, and the cells were counted under a microscope in five random fields, irrespective of staining intensity. The images were taken by the fluorescence microscope (OLYMPUS).

H1975 cells [11] = experiment: Wound healing and transwell assays, H1975; format: cell-based, human
Description: as §6, §7

HBE cells = experiment: CCK-8 cell viability, HBE normal bronchial cells; format: cell-based; conditions: HBE normal human bronchial cell line, read-out: Cellular Antiproliferative Activity (IC50, μM) HBE
Description: as §1

A549 cells = experiment: CCK-8 cell viability, A549; format: cell-based; conditions: Homo sapiens
Description: as §1

A431 cells [12] = experiment: AO/EB and DAPI staining, A431; format: cell-based, human; conditions: A431, AO/EB or DAPI staining, 48 h
Description: as §5

wild-type EGFR = target: T2, wild-type EGFR (Homo sapiens, UniProt P00533); experiment: EGFR kinase enzymatic assay (ADP-Glo), wild-type; format: biochemical; conditions: read-out: EGFR (IC50, nM) WT
T2 construct: purchased Promega Corporation V3831
Description: as §3, with “The” for “Concentrations consisting of suitable levels from 0.1 to 100 nM were used for all of the tested compunds. The”

LO-2 cells = experiment: CCK-8 cell viability, LO-2 normal liver cells; format: cell-based; conditions: Homo sapiens, L02, LO-2 normal liver cell line, read-out: Cellular Antiproliferative Activity (IC50, μM) LO-2
Description: as §1

A431 cells [13] = experiment: CCK-8 cell viability, A431; format: cell-based; conditions: Homo sapiens
Description: as §1

[14] = high dose, patients in clinical trials; cited from earlier work
[15] = HCC827 (EGFR del E746_A750), CCK-8, read-out: Cellular Antiproliferative Activity (IC50, μM) HCC827
[16] = CCK-8, read-out: Cellular Antiproliferative Activity (IC50, μM) LoVo
[17] = A549 (wild-type and k-ras), CCK-8, read-out: Cellular Antiproliferative Activity (IC50, μM) A549
[18] = A-431, A431 (wild-type), CCK-8, read-out: Cellular Antiproliferative Activity (IC50, μM) A431

| SMILES | IC50 (H1299 cells) | Apoptosis rate (%) (H1975 cells [1]; H1975, 200 nM) | effect on ROS generation (A431 cells [2]) | IC50 (H1975 cells [3]) | IC50 (HCC827 cells; [15]) | IC50 (LoVo cells; [16]) | effect on ROS generation (H1975 cells [6]) | Apoptosis rate (%) (A431 cells [9]; A431, 1 μM) | IC50 (HBE cells) | IC50 (A549 cells; [17]) | IC50 (LO-2 cells) | IC50 (A431 cells [13]; [18]) | further results |
| --- | --- | --- | --- | --- | --- | --- | --- | --- | --- | --- | --- | --- | --- |
| C=CC(=O)Nc1cccc(Nc2nc(Nc3ccc(CN4CCOCC4)cc3)ncc2Cl)c1 [DY3002, N-(3-((5-chloro-2-(4-((1-morpholino)methyl)phenylamino)-4-pyrimidinyl)amino)phenyl)acrylamide] | 4.12 µM | 72.0% | effectively inhibited ROS generation | 0.037 µM | 0.0104 µM | 2.46 µM | effectively inhibited ROS generation | 50.8% | > 40 µM | 4.45 µM | 4.24 µM | 0.382 µM | Apoptosis rate (%) (H1975 cells [1]; H1975, 100 nM): 25.7%; Apoptosis rate (%) (H1975 cells [1]; H1975, 400 nM): 90.1%; IC50 (EGFR L858R/T790M; EGFR L858R/T790M, ADP-Glo kinase assay): 0.71 nM; SI(WT:L858R/T790M) (EGFR L858R/T790M; selectivity index, IC50 WT / IC50 L858R/T790M): 632.0; hyperglycemia (blood glucose concentration versus control group) [4]: did not result in hyperglycemia; also recorded: did not yield hyperglycemia; also recorded: no hyperglycemia side effects; G0/G1 (A431 cells [5]; A431, 2 μM, cell cycle phase): 75.87%; cell-cycle arrest (A431 cells [5]; A431, 0.5, 1 and 2 μM): G0/G1 arrest; apoptotic morphology (H1975 cells [7]): striking nuclear condensation, membrane blebbing, nuclear fragmentation, and apoptotic bodies; G0/G1 (H1975 cells [8]): 91.33%; S (H1975 cells [8]): 5.67%; Apoptosis rate (%) (A431 cells [9]; A431, 0.5 μM): 46.1%; Apoptosis rate (%) (A431 cells [9]; A431, 2 μM): 61.6%; inhibition of cell migration (A431 cells [10]): only moderately interfered; inhibition of cell migration (H1975 cells [11]): strongly inhibit migration; apoptotic morphology (A431 cells [12]): striking nuclear condensation, membrane blebbing, nuclear fragmentation, and apoptotic bodies; IC50 (wild-type EGFR): 449 nM |
| COc1cc2ncnc(Nc3ccc(F)c(Cl)c3)c2cc1OCCCN1CCOCC1 [Gefitinib, gefitinib, reference compound] | – | 4.6% | – | – | – | – | – | – | – | – | – | – | – |
| C=CC(=O)Nc1cc(Nc2nccc(-c3cn(C)c4ccccc34)n2)c(OC)cc1N(C)CCN(C)C [Osimertinib, osimertinib] | 7.49 µM | – | […] | 0.087 µM | – | – | […] | – | 8.39 µM | – | 4.56 µM | – | IC50 (HCC827 cells; HCC827, read-out: Cellular Antiproliferative Activity (IC50, μM) HCC827): 0.0102 µM; IC50 (LoVo cells; read-out: Cellular Antiproliferative Activity (IC50, μM) LoVo): 4.85 µM; IC50 (A549 cells; A549, read-out: Cellular Antiproliferative Activity (IC50, μM) A549): 7.28 µM; IC50 (A431 cells [13]; A-431, read-out: Cellular Antiproliferative Activity (IC50, μM) A431): […] |
| C=CC(=O)Nc1cccc(Nc2nc(Nc3ccc(N4CCN(C(C)=O)CC4)cc3OC)ncc2C(F)(F)F)c1 [Rociletinib, rociletinib] | 20.1 µM | 65.2% | effectively inhibited ROS generation | 0.137 µM | 0.0181 µM | 20.1 µM | effectively inhibited ROS generation | 54.5% | > 40 µM | 6.5 µM | 8.57 µM | 1.29 µM | side effect in patients [14]: hyperglycemia |

Source: publication PMC6274483, “Novel Selective and Potent EGFR Inhibitor that Overcomes T790M-Mediated Resistance in Non-Small Cell Lung Cancer” (Molecules, 2016)
